Measured values from article PMC11554305, “Functional identification of soluble uric acid as an endogenous inhibitor of CD38” (eLife, 2024).

Experiments:
[1] = Moderate sUA supplementation in mice (plasma, whole blood, tissue and serum levels); format: in vivo, mouse; conditions: for Interference with whole blood NAD+ metabolism: OA or inosine alone, 1-day treatment, inflammatory conditions
Experimental: Plasma sUA levels in mice were increased to the minimum physiological levels of humans by moderate sUA supplementation. For 1-day sUA supplementation, WT and CD38 KO mice received oral administration of saline, OA (1.5 g/kg), or OA (1.5 g/kg) plus inosine (1.5 g/kg), the gavage volume was 5 mL/kg. Drug suspension in saline was freshly prepared and warmed to 37°C before each treatment. The mice received the first treatment on the evening (19:00) of the first day and the second treatment on the morning (9:00) of the second day. For 3- or 7-day sUA supplementation, WT and CD38 KO mice received the same treatment twice daily from the evening of the first day to the morning of the last day. Four hours after the last treatment, the mice were sacrificed and whole blood, serum, plasma, and tissues were collected for metabolic studies. For immunological studies, mice were stimulated with different ligands 2 hr after the second treatment on the morning (9:00) of the second day.
WT mice received oral administration of saline, OA, or OA plus inosine (1-day supplementation model, as described above). One day (28 hr) or 3 days (76 hr) after the second treatment, the mice were sacrificed and whole blood and plasma were collected.
The collected whole blood samples were immediately diluted 10-fold in 5% ice-cold PCA and homogenized on ice. After 10 min centrifugation at 15,000 rpm, 4°C, the supernatant was subpackaged for measurement or –80°C storage. For NAD^+ measurement in whole blood, the supernatant was handled without freezing and thawing and was measured within 24 hr of sample collection. For measurement of plasma sUA, after sample collection, we immediately diluted the plasma with 5% ice-cold PCA, after vortex, samples were centrifuged at 15,000 rpm, 4°C for 10 min, the collected supernatant was used for the subsequent handling and measurement within 24 hr.
After the collection of blood samples, the mice were immediately perfused with ice-cold sterile PBS. The tissue samples were collected, dried with tissue paper, and weighed. All the tissue samples were immediately homogenized in 5% ice-cold PCA on ice, then centrifuged at 15,000 rpm, 4°C for 10 min. The supernatant was collected and stored at –80°C until further handling for measurement (see LC-MS/MS analysis).
As mentioned above, samples (cells, tissues, blood, or reaction buffer) were treated with ice-cold PCA, after extraction and centrifugation, the collected supernatant was appropriately diluted in 5% ice-cold PCA when applicable, and then was vortexed for 30 s and centrifuged at 15,000 rpm, 4°C for 5 min. Afterward, 30 μL supernatant was added into 200 μL 5 mM ammonium formate containing internal standards at indicated concentrations. Then, all the samples were vortexed for 30 s and centrifuged at 15,000 rpm, 4°C for 5 min again, the final supernatant was used for subsequent measurement. All the samples after handling were immediately analyzed in this study without freezing and thawing.
The LC-MS/MS system consisted of a triple quadrupole LCMS-8050 (Shimadzu) and an LC-30A system (Shimadzu). NAD^+, NMN, and the N-cyclohexyl benzamide (NCB, internal standard, 5 ng/mL) were eluted on Altlantis HILIC Silica (2.1×150 mm, 5 μm) at 40°C using an isocratic mobile phase containing 60% water with 0.1% formic acid and 40% acetonitrile with 0.1% formic acid at 0.4 mL/min. The selected transitions of m/z were 664.10 → 136.10 for NAD^+, 334.95 → 123.15 for NMN, and 204.10 → 122.20 for NCB in positive ion mode. NAD^+ and NMN were measured independently in this study, as their peaks were hardly separated within a short time.
sUA, cADPR, and FYU-981 (internal standard, 1 μM, Fuji Yakuhin Co., Ltd.) were eluted on CAPCELL PAK C8 TYPE UG 120 (2×150 mm, 5 μm) at 40°C. sUA and FYU-981 were separated using a gradient mobile phase containing water with 0.1% formic acid (A) and acetonitrile with 0.1% formic acid (B) at 0.4 mL/min. […]

[2] = test system: cLPS-induced systemic inflammation; test: cLPS-induced systemic inflammation; format: in vivo, mouse; conditions: WT mice; for Effect on cLPS-induced systemic inflammation: OA or inosine alone, 1-day oral treatment
Experimental: Plasma sUA levels in WT and CD38 KO mice were increased to the minimum physiological levels of humans by 1-day sUA supplementation (OA plus inosine). Two hours after the last treatment of OA, or OA plus inosine, the mice were intraperitoneally injected with sterile PBS or cLPS (2 or 20 mg/kg), the injection volume was 3 mL/kg. Four hours (20 mg/kg) or 6 hr (2 mg/kg) after stimulation, the mice were sacrificed and whole blood, plasma, and serum were collected.
(§1) Human IL-1β, mouse IL-1β, IL-6, IL-18, TNF-α, and CXCL1 levels were measured according to the protocols provided by the manufacturer. Serum samples were diluted before ELISA when applicable. In this study, all the samples were frozen after collection and thawed before ELISA.

[3] = test system: MSU crystal-induced peritonitis; test: MSU crystal-induced peritonitis; format: in vivo; conditions: WT mice, MSU crystals 2 mg/mouse; for Effect on MSU crystal-induced peritonitis: OA or inosine alone, 1-day oral treatment
Experimental: Plasma sUA levels in WT and CD38 KO mice were increased to the minimum physiological levels of humans by 1-day sUA supplementation (OA plus inosine). Two hours after the last treatment of OA, or OA plus inosine, the mice were intraperitoneally injected with sterile PBS or MSU crystals (2 mg/mouse), and the injection volume was 200 μL/mouse. Six hours after stimulation, the mice were sacrificed and blood samples were collected. For each mouse, the peritoneal cavity was washed with 5 mL ice-cold sterile PBS, the supernatant was collected by centrifugation for subsequent ELISA, and cell pellets were used for total viable cell count by Trypan Blue staining. In brief, cell pellet from 1.5 mL of peritoneal lavage fluid was resuspended in RBC lysis buffer for 30 s, sterile PBS (ninefold volume) was added to terminate lysis. Afterward, the cells were centrifuged at 1000 rpm for 5 min and resuspended in sterile PBS for viable cell count. For neutrophil count, peritoneal lavage fluid was directly used for smears after appropriate dilution, and subsequently, Wright-Giemsa staining was performed according to the protocol provided by the manufacturer.
as §1

[4] = 6 hr, 1-day sUA supplementation, not in CD38 KO mice

Row | SMILES | Interference with whole blood NAD+ metabolism ([1]; WT mice) | Effect on cLPS-induced systemic inflammation ([2]; cLPS 2 mg/kg) | Effect on MSU crystal-induced peritonitis [3] | Whole blood NAD+ levels ([1]; 1- or 3-day moderate sUA supplementation (OA plus inosine), WT mice, not in CD38 KO mice) | cADPR production in whole blood ([1]; 1-day sUA supplementation, inflammatory conditions (cLPS 2 mg/kg), not under non-inflammatory conditions) | NAD+ levels in the brain and heart ([1]; 7-day sUA-supplementation model) | Plasma sUA and whole blood NAD+ after sUA release ([1]; WT mice, 1-day or 3-day release after 1-day supplementation) | concentration at 4 h ([1]; mouse, plasma, mice, oral OA 1.5 g/kg plus inosine 1.5 g/kg, read-out: Plasma sUA levels in the sUA-supplementation models) | NMN levels in vivo ([1]; sUA supplementation, whole blood) | Serum IL-1β production ([1]; sUA-supplementation models within 7 days) | cLPS-induced production of serum IL-1β and IL-18 ([2]; cLPS 2 mg/kg, 6 hr, 1-day sUA supplementation (OA plus inosine), abrogated in CD38 KO mice) | Serum TNF-α levels ([2]; cLPS 2 mg/kg, 6 hr, 1-day sUA supplementation) | High-dose cLPS-induced systemic inflammation ([2]; cLPS 20 mg/kg, 4 hr) | Production of IL-1β and IL-6, peritoneal lavage fluid [3, 4] | Recruitment of viable cells and neutrophils, peritoneal lavage fluid [3, 4] | Effect on plasma sUA levels ([1]; mice, short-term administration of OA alone)
1 | O=c1[nH]cnc2c1ncn2[C@@H]1O[C@H](CO)[C@@H](O)[C@H]1O [Inosine, inosine, reference compound] | had no interference | hardly affected | hardly affected |  |  |  |  |  |  |  |  |  |  |  |  | 
2 | O=c1[nH]c(=O)c2[nH]c(=O)[nH]c2[nH]1 [sUA, uric acid] |  |  |  | slightly but significantly increased | decrease in cADPR production | appeared to be elevated | gradually returned to their initial levels | ~120 µM | minor effect on NMN levels | did not show an increase | suppressed | without affecting | hardly limited | reduced the production of IL-1β and IL-6 | inhibited the recruitment of viable cells and neutrophils | 
3 | O=C(O)c1nc(=O)[nH]c(=O)[nH]1 [OA, oxonic acid, reference compound] | had no interference | hardly affected | hardly affected |  |  |  |  |  |  |  |  |  |  |  |  | failed to increase plasma sUA levels
